Data on three molecules can be found in patent publication US20240082232A1, “COMPOSITIONS AND METHODS FOR TREATMENT OF OVARIAN AND BREAST CANCER” (Board of Regents, The University of Texas System, priority 2021, published 2024).

Data set [1] concerns MEF2D binding to FANCD2, EXO1, XRCC4. The data set is described as follows: ChIP-qPCR of MEF2D binding to promoter/enhancer regions. The format is cell-based, human. Conditions: for MEF2D binding to EXO1 and XRCC4 promoter/enhancer regions: all cell lines tested; for MEF2D-association with the FANCD2 promoter/enhancer region: all four cell lines assessed. As for the experimental part:
(A) Alterations affecting MEF2 family genes in ovarian and breast cancer by TCGA analysis. […] Data and plots were obtained using cBioPortal (21, 58, 59). (B) MEF2D consensus DNA motifs. The MEF2 motif is enriched in MEF2D-binding sites in SKOv3 cells. (C) GO analysis of MEF2D-bound genes. […] (E) Chip and RT-qPCR analysis of FANCD2, EXO1, and XRCC4 genes. […] Chip pull-down samples were analyzed by RT-qPCR.
(A) MEF2D-binding sites in human ovarian cancer cells. (B) Chip analysis of FANCD2, EXO1, and XRCC4 genes. […] Chip pull-down samples were analyzed by RT-qPCR using as indicated.
Chip assays were performed using the Magna Chip A Kit (Millipore). […] Nuclei were isolated and sonicated to obtain 200-1000 bp DNA fragments using the QSONICA sonicator for 30 cycles with 10 seconds pulses at 100% amplitude with 2 min of incubation on ice between pulses. For individual ChIP assay, 100 μg of soluble chromatin per sample was immunoprecipitated with 8 μg of mouse IgG control antibody (Santa Cruz, sc-2025), 8 μg of rabbit control antibody (Millipore, PP64B), 8 μg of MEF2D antibody (Santa Cruz, sc-27115 3×), 8 μg of RNA polymerase II antibody (Abcam, ab817), 6 μg of Histone H3 (acetyl K27) antibody (Abcam, ab45173) or 6 μg of Histone H3 (tri methyl K4) (Abcam, ab8580). For ChIP-Sequence, 500 μg of chromatin per sample was immunoprecipitated with 40 μg of MEF2D antibody. Input determined from 1% of the cell lysate was used as a negative control. Purified and enriched DNA was quantified using real time quantitative PCR (RT-qPCR) with the following primers. FANCD2D Forward, 5′-ACCTGTTATGAGCGTGAAGTC-3′ (SEQ ID NO:1) and Reverse, 5′-GATGCAGGACTGTGCATTAGA-3′ (SEQ ID NO:2); EXD2 Forward, 5′-GGTCTGGCCTAAGGTTTCTTC-3′ (SEQ ID NO:3) and Reverse, 5′-CAG TTC ACG CTG GGT TCT T-3′ (SEQ ID NO:4); and XRCC Forward, 5′-GCAGTCTTCCTAGTCTCAACT-3′ (SEQ ID NO:5) and Reverse, 5′-TTGCCCTTCTAGGAGCTTAATG-3′ (SEQ ID NO:6). RT-qPCR was performed using iTaq Universal SYBR Green Supermix (Bio-Rad, 172-5124) in a CFX Connect RT-qPCR (Bio-Rad). Thermal cycling condition was as follows: 94° C. for 10 min, followed by 40 cycles of 94° C. for 20 sec, and 60° C. for 60 sec. Analysis of qPCR data was calculated using fold enrichment method (The ChIP signals are divided by the IgG antibody signals, 2^-DDCt).
(Quantitative PCR measures a nucleic acid by following its amplification.)

Data set [2] has as its system ovarian cancer cell lines. Put plainly: cells. The following applies: read-out: IC50, growth of ovarian cancer cell lines.
The subject of data set [3] is MEF2D binding sites in SKOv3 ovarian cancer cells. Format: cell-based, human.
Experimental: Genome-wide binding of MEF2D in SKOv3 ovarian cancer cells was then examined using chromatin immunoprecipitation sequencing (Chip-seq). […] To identify a MEF2D consensus recognition sequence in ovarian cancer cells, de novo-motif discovery analysis was performed.
Chip assays were performed using the Magna Chip A Kit (Millipore). […] Nuclei were isolated and sonicated to obtain 200-1000 bp DNA fragments using the QSONICA sonicator for 30 cycles with 10 seconds pulses at 100% amplitude with 2 min of incubation on ice between pulses. […] For ChIP-Sequence, 500 μg of chromatin per sample was immunoprecipitated with 40 μg of MEF2D antibody. Input determined from 1% of the cell lysate was used as a negative control. Purified and enriched DNA was quantified using real time quantitative PCR (RT-qPCR) with the following primers. […] Analysis of qPCR data was calculated using fold enrichment method (The ChIP signals are divided by the IgG antibody signals, 2^-DDCt).
Sequencing was performed by the Sequencing and Microarray Facility (SMF) at MD Anderson Cancer Center. […] Libraries were amplified by 8 cycles of PCR and then size distribution was assessed using the 4200 TapeStation High Sensitivity D1000 ScreenTape (Agilent Technologies) and quantified using the Qubit dsDNA HS Assay Kit (ThermoFisher). […] The raw reads were first preprocessed to remove sequencing adapters and low quality reads. […]
Data set [4] has as its system SKOv3, OVCAR8, HCC5032, MDA-MB-231 cells. The data set is described as follows: DNA damage: γ-H2AX immunofluorescence and comet assay. Format: cell-based, human. The method, then:
(A) The Heatmap representation unsupervised hierarchical clustering of differentially expressed genes associated with DNA repair. […] (B) Analysis of DNA Repair and apoptosis genes. BRCA2, EXO1, FANCD2, LIG4, XRCC4, BAX, BCL2, CASP7, and TRADD were analyzed using RT-PCR in OVCAR8 ovarian and MDA-MB-231 breast cancer cells. […] (C) Quantification of DNA damage (γ-H2AX). Endogenous γ-H2AX was stained with anti-γ-H2AX antibody in the cells treated with single agent or combined for 8 hrs as indicated. […] Red indicates γ-H2AX and Blue-DAPI indicates nuclear stain. Representative images are presented (right). Bar 20 […]. Red γ-H2AX dots were quantified with OLYMPUS CellSens Dimension software. […] Bar 20 μm. (D) Detection of apoptosis using Annexin V/Propidium iodide (PI) staining.
(A) The heatmap of unsupervised hierarchical clustering of differently expressed genes associated with apoptosis. […] (B) Analysis of DNA repair and apoptosis gene. […] Representative experiments were from two independent experiment and 3 technical repeats per experiments. (C) Quantification of DNA damage using comet assay. […] Slides were then stained with Vista Green DNA dye and viewed using Olympus fluorescence microscope with FITC filter. Olive Tail Moment was measured using CaspLab1.2.3β2 software. […] Representative experiments were from three independent experiments with a minimum of 50 cells.
Cells were trypsinized and resuspended at 2×10^5/mL in cold PBS without Ca^2+ and Mg^2+. Cells were mixed with pre-warmed comet agarose at 1:10 (v/v) ratio. 10 uL of cell agarose mixture was plated onto comet slides pre-coated with 75 uL of agarose and chilled at 4° C. for 15 min to set. Cells were lysed in 25 mL of Lysis buffer at 4° C. for 2 hrs and washed with alkaline solution (pH 10). Comet slides were electrophoresed in cold alkaline solution at 20V for 15 min. […] Experiments were run in triplicate and Olive Tail Moment was measured using CaspLab1.2.β2 software (CaspLab.com). […] 50-200 Cells were measured for each treatment and experiments were repeated twice independently to ensure reproducibility. […]

Data set [5] in a line: Toxicology / pre-clinical studies, hematologic toxicity. Format: in vivo.
Data set [6] concerns OVCAR8 and MDA-MB-231 xenograft tumors. The data set is described as follows: IHC of xenograft tumors at study termination. Format: in vivo, mice. As for the experimental part:
(§1) (^nsp>0.05, *p<0.05; ** p<0.01). […] (^nsp>0.05, *p<0.05; ** p<0.01). […] Scale bar, 50 μM.
Tumors growing as xenografts were collected for histology with H&E and IHC staining. Routine H&E staining detected high-grade ovarian cancer in ovarian cancer xenograft models and breast cancer morphology in the breast cancer xenograft model, respectively. IHC of OVCAR8 and MDA-MB-231 xenograft tumors at study termination recapitulated in vitro studies.
Formalin fixed and paraffin embedded mouse tissue sections were deparaffinized and rehydrated in gradient ethanol solutions. Antigens were retrieved in Rodent Decloaker (BioCare Medical, RD913M) and microwaved twice in an EZ Retriever System V3 (BioGenex) at 95° C. for 5 min. Tissues were blocked in PeroxAbolish (BioCare Medical, PXA969M) for 30 min, Rodent Block M (BioCare Medical, RBM961L) for 30 min, and 5% BSA in PBS for 30 min Tissues were incubated with primary antibody as indicated overnight at 4° C. VisUCyte HRP Polymer IgG (R&D Systems, VC001-025 for mouse, VC003-025 for rabbit) was applied for 30 min at room temperature followed by DAB chromogenesis (BioCare Medical, BDB2004L). Tissues were counter-stained with CAT hematoxylin (Thermo Fisher, CATHE-M) for 20 sec. The slides were then dehydrated through gradient ethanol solutions and two passes of xylene and sealed with Permount (Thermo Fisher, SP15-100).

For data set [7], the system named is MDA-MB-231 orthotopic xenografts. Put plainly: MDA-MB-231 orthotopic xenografts (paclitaxel sensitivity study). Format: in vivo, mice.
The subject of data set [8] is MDA-MB-231 xenografts. Put plainly: MDA-MB-231 mammary fat pad xenograft. Format: in vivo, mice. Conditions: 5 weeks treatment. The method, then: as §1
Forty female nu/nu mice were injected with 0.8×10^6 MDA-MB-231 cells into their fourth mammary fat pads. […] Tumors were measured every week as noted above (SKOv3 xenograft models).

Data set [9] relates to organoid. The data set is described as follows: Organoid growth. Format: cell-based. The method, then:
To evaluate additive or synergistic interactions, a combination Index (CI value) was calculated with CalcuSyn software.

The test system of data set [10] is SKOv3 and OVCAR8 SIK2 knock-out cells. Put plainly: Olaparib dose-response in SIK2 knock-out cells. The following applies: SIK2 knock-out by CRISPR/Cas9.
Experimental: (§2) Representative experiments were from two independent experiments with four technical repeats per experiment. (B) Dose-response curves of olaparib in paired cancer cell lines with or without knockout of SIK2 (top) and with or without stable transfection of SIK2 (bottom). The median inhibitory concertation (IC50) of olaparib was calculated using GraphPad Prism 8. Representative experiments are from two independent experiments with four technical repeats per experiment. Western analysis confirmed either SIK2 knock out (top) or overexpression (bottom).
(§3) To exclude potential off-target effects of SIK2 inhibitors, SIK2 was knocked down by CRISPR/Cas9 and stable ectopic expression of SIK2 was established in SKOv3 and OVCAR8 ovarian cancer cells.
OVCAR8 and SKOv3 SIK2 knock out cell lines were established using CRISPR/Cas9 technology known in the art. Briefly, a plasmid with GFP containing Cas9 and the sgRNA expression were transfected to cancer cells. […] Transfected cells were isolated by FACS for single-cell culture 2-3 days after transfection, and then the cells were expanded and harvested for detection of the protein expression using western analysis.
Data set [11] relates to SKOv3 xenografts. The data set is described as follows: SKOv3 subcutaneous xenograft. The format is in vivo, mice. The following applies: oral, five times per week, 4 weeks. As for the experimental part: as §1
In data set [12] the test system is DT40 PARP-1 −/− cells. The data set is described as follows: Dose-response in DT40 PARP-1 -/- cells. Conditions: cells lacking PARP1/2.
Experimental: Representative data are from three independent experiments with 4 technical repeats per experiment. […] The IC50 indicated on the curves was calculated using GraphPad Prism 8.
To further test this possibility, DT40 PARP-1 −/−cells that lack PARP enzyme activity (avian cells lack PARP2) were treated with SIK2 inhibitors or olaparib.
Data set [13] deals with SKOv3 and OVCAR8 cells with stable ectopic expression of SIK2. Put plainly: Olaparib dose-response in cells with stable ectopic SIK2 expression.
Experimental: as §2, §3

pIC50: −log10 of the molar value. “Also recorded” adds a separate entry of the source.

With `COc1c(F)cc(F)cc1-c1c[nH]c2ncc(-c3cnn(C4CCNCC4)c3)cc12` [Compound A, 3-(3,5-difluoro-2-methoxyphenyl)-5-(1-(piperidin-4-yl)-1H-pyrazol-4-yl)-1H-pyrrolo[2,3-b]pyridine], in [1], the “MEF2D binding to EXO1 and XRCC4 promoter/enhancer regions” value is reported as “significantly decreased”; the “MEF2D-association with the FANCD2 promoter/enhancer region” value was “decreased”. Besides, the pIC50 in data set [2] was 5.59 to 6.10. Moreover, the MEF2D binding sites in data set [3] stood at 36 binding sites. Also, the “levels of γ-H2AX and tailed DNA” value in data set [4] is given as “modestly increased”.

`COc1c(F)cc(F)cc1-c1c[nH]c2ncc(-c3cnn(C4CCN(S(C)(=O)=O)CC4)c3)cc12` [Compound B, 3-(3,5-difluoro-2-methoxyphenyl)-5-(1-(1-(methylsulfonyl)piperidin-4-yl)-1H-pyrazol-4-yl)-1H-pyrrolo[2,3-b]pyridine]: in data set [1], the “MEF2D binding to EXO1 and XRCC4 promoter/enhancer regions” value was “significantly decreased”; the “MEF2D-association with the FANCD2 promoter/enhancer region” value is on record as “decreased”. The hematologic toxicity result in [5] is “minimal hematologic toxicity; also recorded: little or no hematopoietic toxicity”. In data set [2], the pIC50 is 5.59 to 6.10. For the same molecule, in [6], the “nuclear p-HDAC5 staining” value was “decreased” and the “nuclear γ-H2AX staining” value is listed as “increased nuclear γ-H2AX staining”. Besides, the “levels of γ-H2AX and tailed DNA” value in data set [4] was “modestly increased”. Besides, in [7], the survival of mice result is listed as “prolonged the survival” and the xenograft growth result is “inhibited xenograft growth”. Also, the “tumor burden / tumor volume” value in data set [8] is listed as “tumor burden remained unchanged”. Also, the organoid growth result in data set [9] was “inhibits organoid growth inducing cell death”.

Consider `O=C(c1cc(Cc2n[nH]c(=O)c3ccccc23)ccc1F)N1CCN(C(=O)C2CC2)CC1` [Olaparib, reference compound], for which the “IC50 in SIK2 deficient cells compared to control cells” value in data set [10] was “lower IC50”. The tumor growth entry in [11] is on record as “significantly inhibited tumor growth”. The “nuclear p-HDAC5 staining” value in data set [6] is listed as “not”. In data set [12], the “sensitivity of DT40 PARP-1 −/− cells” value is “resisted”. In [4], the “levels of γ-H2AX and tailed DNA” value is given as “modestly increased”. The “tumor burden / tumor volume” value in data set [8] was “tumor burden remained unchanged”. Further, the “IC50 in cells with stable ectopic expression of SIK2” value in data set [13] is listed as “increased IC50”.

The pIC50 is the negative decadic logarithm of the IC50, by convention in mol/L.
